Results: ChEMBL document CHEMBL5579839, “Discovery of new cyclopropane sulfonamide derivatives as EGFR inhibitors to overcome C797S-mediated resistance and EGFR double mutation” (Eur J Med Chem, 2024)
Calls of active or inactive are those of the source. The rule behind the calls is not given here.

How the values were obtained:
BaF3 [1] = test: Inhibition of colony formation in mouse BaF3 cells harboring EGFR L858R/T790M/C797S mutant at 5 to 10 nM by crystal violet staining based analysis; assay type: functional, cell-based; settings: dose 5-10 nM
[2] = Toxicity in nude mouse allografted with mouse BaF3 cells assessed as damage in kidney at 50 mg/kg, po for 7 days by H and E staining based analysis; assay type: organism-based; settings: in vivo, 168 h, time 7 day
[3] = molecular target: T1, Epidermal growth factor receptor (Homo sapiens, UniProt P00533); test: Inhibition of EGFR in human NCI-H1975 cells assessed as reduction in AKT phosphorylation incubated for 24 hrs by Western blot analysis; assay type: cell-based; settings: dose <= 50.0 nM
T1 sequence (P00533 whole entry): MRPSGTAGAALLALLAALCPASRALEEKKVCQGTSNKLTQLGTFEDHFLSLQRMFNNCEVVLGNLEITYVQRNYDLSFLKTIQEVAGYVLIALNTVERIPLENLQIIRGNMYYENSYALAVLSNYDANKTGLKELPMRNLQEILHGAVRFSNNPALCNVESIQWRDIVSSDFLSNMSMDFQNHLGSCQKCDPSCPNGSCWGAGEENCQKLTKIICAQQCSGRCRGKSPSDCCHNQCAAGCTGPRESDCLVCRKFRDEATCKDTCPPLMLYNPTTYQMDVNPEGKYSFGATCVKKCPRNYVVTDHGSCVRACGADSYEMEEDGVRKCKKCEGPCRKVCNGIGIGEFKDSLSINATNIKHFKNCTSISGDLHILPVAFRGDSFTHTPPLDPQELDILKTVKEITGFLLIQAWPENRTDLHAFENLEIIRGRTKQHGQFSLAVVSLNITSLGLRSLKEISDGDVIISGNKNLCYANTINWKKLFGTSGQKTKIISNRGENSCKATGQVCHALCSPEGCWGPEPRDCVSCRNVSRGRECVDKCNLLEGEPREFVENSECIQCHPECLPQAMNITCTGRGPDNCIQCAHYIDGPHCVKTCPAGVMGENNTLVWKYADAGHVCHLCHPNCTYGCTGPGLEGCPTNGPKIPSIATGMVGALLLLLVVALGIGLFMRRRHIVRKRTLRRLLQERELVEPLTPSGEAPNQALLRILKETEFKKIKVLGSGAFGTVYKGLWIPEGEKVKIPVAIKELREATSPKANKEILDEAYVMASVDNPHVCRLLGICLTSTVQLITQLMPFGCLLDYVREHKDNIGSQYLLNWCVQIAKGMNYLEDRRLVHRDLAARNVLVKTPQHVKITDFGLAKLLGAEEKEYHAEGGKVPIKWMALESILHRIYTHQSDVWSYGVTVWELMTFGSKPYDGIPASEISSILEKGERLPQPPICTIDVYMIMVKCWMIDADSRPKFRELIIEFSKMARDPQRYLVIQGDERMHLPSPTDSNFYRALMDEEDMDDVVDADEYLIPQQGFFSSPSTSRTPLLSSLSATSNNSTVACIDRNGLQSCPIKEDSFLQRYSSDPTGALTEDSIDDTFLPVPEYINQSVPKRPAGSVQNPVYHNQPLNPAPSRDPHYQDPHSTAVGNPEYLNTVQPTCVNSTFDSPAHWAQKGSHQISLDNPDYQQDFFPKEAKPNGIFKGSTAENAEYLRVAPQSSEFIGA

NCI-H1975 [4] = test: Induction of apoptosis in human NCI-H1975 cells assessed as viable cells at 10 nM incubated for 24 hrs by Annexin V-FITC/PI staining based flow cytometry (reference value: 91.38 %); assay type: functional; settings: read-out: Activity
BaF3 [5] = test: Inhibition of neovascularization in mouse BaF3 cells allografted in nude mouse at 50 mg/kg, po for 7 days; assay type: functional, organism-based; settings: time 7.0 day
NCI-H1975 [6] = test: Induction of apoptosis in human NCI-H1975 cells assessed as necrotic cells at 10 nM incubated for 24 hrs by Annexin V-FITC/PI staining based flow cytometry (reference value: 2.89 %); assay type: functional
Homo sapiens = species: Homo sapiens; test: Binding affinity to FGFR (unknown origin) at 100 nM by kinase profiling analysis
[7] = molecular target: Epidermal growth factor receptor (Homo sapiens, UniProt P00533, L858R/T790M); test: Inhibition of EGFR T790M/L858R mutant (unknown origin)
Epidermal growth factor receptor (Homo sapiens, UniProt P00533, L858R/T790M), sequence (P00533 25-1210 T790M/L858R limits assumed): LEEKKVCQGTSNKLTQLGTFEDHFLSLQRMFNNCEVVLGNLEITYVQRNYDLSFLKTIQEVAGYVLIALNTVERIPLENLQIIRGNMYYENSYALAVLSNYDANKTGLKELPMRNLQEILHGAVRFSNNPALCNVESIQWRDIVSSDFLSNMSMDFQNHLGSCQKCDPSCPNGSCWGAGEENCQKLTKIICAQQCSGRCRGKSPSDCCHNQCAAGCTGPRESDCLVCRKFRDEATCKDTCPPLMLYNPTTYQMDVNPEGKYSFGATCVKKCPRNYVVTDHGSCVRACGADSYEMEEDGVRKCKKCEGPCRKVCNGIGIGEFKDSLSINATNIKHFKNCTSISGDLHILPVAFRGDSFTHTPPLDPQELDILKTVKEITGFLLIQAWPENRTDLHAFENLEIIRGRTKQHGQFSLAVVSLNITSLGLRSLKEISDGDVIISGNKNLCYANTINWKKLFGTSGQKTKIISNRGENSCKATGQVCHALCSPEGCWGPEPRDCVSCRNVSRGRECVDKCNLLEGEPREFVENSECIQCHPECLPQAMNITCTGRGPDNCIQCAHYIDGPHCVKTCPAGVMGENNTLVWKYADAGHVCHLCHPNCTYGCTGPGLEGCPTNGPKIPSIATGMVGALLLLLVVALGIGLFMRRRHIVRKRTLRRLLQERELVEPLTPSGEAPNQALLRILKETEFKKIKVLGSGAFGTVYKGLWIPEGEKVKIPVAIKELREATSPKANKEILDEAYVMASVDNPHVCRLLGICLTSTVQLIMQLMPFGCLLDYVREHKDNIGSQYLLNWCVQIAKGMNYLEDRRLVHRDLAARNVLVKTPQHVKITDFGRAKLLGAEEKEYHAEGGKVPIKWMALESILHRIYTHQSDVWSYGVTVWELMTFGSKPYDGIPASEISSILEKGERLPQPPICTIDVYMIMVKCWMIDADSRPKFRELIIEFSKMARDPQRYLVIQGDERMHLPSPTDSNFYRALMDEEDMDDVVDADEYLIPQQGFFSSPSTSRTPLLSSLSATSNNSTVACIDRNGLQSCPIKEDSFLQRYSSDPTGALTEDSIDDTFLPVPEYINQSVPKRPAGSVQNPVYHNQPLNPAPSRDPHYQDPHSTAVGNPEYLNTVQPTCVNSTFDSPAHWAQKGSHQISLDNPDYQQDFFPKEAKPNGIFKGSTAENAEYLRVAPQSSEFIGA

NCI-H1975 [8] = test: Induction of apoptosis in human NCI-H1975 cells assessed as early apoptotic cells at 10 nM incubated for 24 hrs by Annexin V-FITC/PI staining based flow cytometry (reference value: 2.18 %); assay type: functional
[9] = Toxicity in nude mouse allografted with mouse BaF3 cells assessed as lesion in heart at 50 mg/kg, po for 7 days by H and E staining based analysis; assay type: organism-based; settings: in vivo, 168 h, time 7 day
[10] = Toxicity in nude mouse allografted with mouse BaF3 cells assessed as damage in lung at 50 mg/kg, po for 7 days by H and E staining based analysis; assay type: organism-based; settings: in vivo, 168 h, time 7 day
[11] = Cytotoxicity against human HK-2 cells; assay type: toxicity, cell-based
[12] = Toxicity in nude mouse allografted with mouse BaF3 cells assessed as lesion in kidney at 50 mg/kg, po for 7 days by H and E staining based analysis; assay type: organism-based; settings: in vivo, 168 h, time 7 day
[13] = Toxicity in nude mouse allografted with mouse BaF3 cells assessed as damage in heart at 50 mg/kg, po for 7 days by H and E staining based analysis; assay type: organism-based; settings: in vivo, 168 h, time 7 day
BaF3 [14] = test: Induction of apoptosis in mouse BaF3 cells harboring EGFR L858R/T790M/C797S mutant assessed as early apoptotic cells at 10 nM incubated for 24 hrs by Annexin V-FITC/PI staining based flow cytometry (reference value: 0.15 %); assay type: functional
[15] = molecular target: T1, Epidermal growth factor receptor; test: Inhibition of EGFR in human NCI-H1975 cells assessed as reduction in ERK phosphorylation incubated for 24 hrs by Western blot analysis; assay type: cell-based; settings: dose <= 50.0 nM
[16] = molecular target: Platelet-derived growth factor receptor beta (Homo sapiens) (UniProt P09619); test: Binding affinity to PDGFR (unknown origin) at 100 nM by kinase profiling analysis
Platelet-derived growth factor receptor beta (Homo sapiens), sequence (P09619 whole entry): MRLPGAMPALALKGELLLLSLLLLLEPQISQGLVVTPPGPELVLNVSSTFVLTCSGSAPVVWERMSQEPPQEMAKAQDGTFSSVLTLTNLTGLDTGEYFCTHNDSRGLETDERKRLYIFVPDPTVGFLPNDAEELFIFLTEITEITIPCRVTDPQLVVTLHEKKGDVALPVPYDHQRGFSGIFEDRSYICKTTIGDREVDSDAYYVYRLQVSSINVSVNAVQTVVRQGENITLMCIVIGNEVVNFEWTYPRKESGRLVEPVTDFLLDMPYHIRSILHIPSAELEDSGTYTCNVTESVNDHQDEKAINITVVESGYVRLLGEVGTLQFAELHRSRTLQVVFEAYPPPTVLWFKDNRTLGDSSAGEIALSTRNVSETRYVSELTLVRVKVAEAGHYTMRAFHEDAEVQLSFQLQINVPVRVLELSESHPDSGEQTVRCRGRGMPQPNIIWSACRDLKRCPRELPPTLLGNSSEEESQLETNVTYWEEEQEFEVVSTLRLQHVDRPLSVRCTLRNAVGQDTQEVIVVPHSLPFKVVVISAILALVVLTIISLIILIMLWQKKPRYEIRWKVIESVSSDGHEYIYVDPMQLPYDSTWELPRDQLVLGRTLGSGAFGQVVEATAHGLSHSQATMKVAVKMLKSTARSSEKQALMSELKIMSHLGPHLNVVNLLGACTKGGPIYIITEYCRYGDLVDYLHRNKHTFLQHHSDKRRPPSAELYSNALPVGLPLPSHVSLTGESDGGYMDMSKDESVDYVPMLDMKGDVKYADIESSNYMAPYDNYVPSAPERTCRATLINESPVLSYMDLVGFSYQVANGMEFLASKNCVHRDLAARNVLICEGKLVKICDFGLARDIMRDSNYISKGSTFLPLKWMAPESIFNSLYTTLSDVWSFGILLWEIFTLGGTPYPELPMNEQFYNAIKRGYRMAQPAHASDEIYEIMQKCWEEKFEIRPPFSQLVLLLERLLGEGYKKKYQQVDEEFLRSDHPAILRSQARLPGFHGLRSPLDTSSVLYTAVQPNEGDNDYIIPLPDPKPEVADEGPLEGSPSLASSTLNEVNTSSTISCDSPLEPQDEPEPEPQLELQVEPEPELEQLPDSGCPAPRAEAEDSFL

NCI-H1975 [17] = test: Inhibition of fibronectin activation in human NCI-H1975 cells xenografted in nude mouse at 50 mg/kg, po for 7 days by IHC analysis; assay type: functional, organism-based; settings: time 7.0 day
BaF3 [18] = test: Inhibition of EGFR L858R/T790M/C797S mutant in mouse BaF3 cells assessed as reduction in AKT phosphorylation incubated for 24 hrs by Western blot analysis; assay type: cell-based; settings: dose <= 100.0 nM
BaF3 [19] = test: Antiproliferative activity against mouse BaF3 cells harboring EGFR L858R/T790M/C797S mutant assessed as inhibition of sphere formation incubated for 72 hrs by CCK8 assay; assay type: functional, cell-based; settings: BaF3, 72 h
BaF3 [20] = test: Antitumor activity against mouse BaF3 cells allografted in nude mouse at 50 mg/kg, po measured for 7 days relative to control; assay type: functional; settings: BaF3, 168 h, time 7 day, read-out: TGI
[21] = Toxicity in nude mouse allografted with mouse BaF3 cells assessed as lesion in spleen at 50 mg/kg, po for 7 days by H and E staining based analysis; assay type: organism-based; settings: in vivo, 168 h, time 7 day

CN1CCCN(c2ccc(Nc3ncc(Br)c(Nc4ccccc4NS(=O)(=O)C4CC4)n3)cc2)CC1
inhibition (BaF3 [1]): Active
Activity [2]: Non-Toxic
inhibition [3]: Dose-Dependent Effect
viability at 0.01 µM (NCI-H1975 [4]): 77.3%
inhibition (BaF3 [5]): Active
Activity (NCI-H1975 [6]): 2.98%
Activity (Homo sapiens): Active
IC50 [7]: 4.76 nM
Activity (NCI-H1975 [8]): 13.31%
Activity [9]: Non-Toxic
Activity [10]: Non-Toxic
IC50 [11]: 2780 nM
Activity [12]: Non-Toxic
Activity [13]: Non-Toxic
Activity (BaF3 [14]): 9.36%
inhibition [15]: Dose-Dependent Effect
Activity [16]: Active
inhibition (NCI-H1975 [17]): Active
inhibition (BaF3 [18]): Dose-Dependent Effect
IC50 (BaF3 [19]): 11.2 nM
inhibition in vivo at 50 mg/kg (BaF3 [20]): 71.2%
Activity [21]: Non-Toxic
